This note sets out measurements from ChEMBL document CHEMBL1201862, “PubChem BioAssay data set” (2004).

Calls of active or inactive are those of the source.

The EC50 is the concentration needed to bring the measured effect to its halfway point. A word on the AC50: it is the midpoint of the concentration-response curve, whichever way the signal moves. A word on the Ki: it is the dissociation constant of the complex between target and ligand, obtained from inhibition or displacement. One may read the CC50 as the concentration at which the toxic effect on the cells reaches its halfway point.

The nature of assay [1]: luciferase reporter signal suppression in cells – H4 neuroglioma cells, luminescence, dose response (AID 1990). In kind it is functional, cell-based. (Reporter assays use an easily measured gene product as a stand-in for the process of interest.)
In assay [2] the test system is BJ. Briefly: BJ-TERT-LT-ST fibroblast viability loss – cell-based, RAS-independent, luminescence, dose response (AID 1935).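 Note: BJ fibroblasts immortalized with TERT plus LT and ST oncogenes.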 In kind it is functional. The settings on record: Homo sapiens.
Assay [3] in a line: alpha-synuclein stem-loop luciferase translation blockers – H4 neuroglioma cells, luminescence, confirmation (AID 1988). In kind it is functional, cell-based.
The test system of assay [4] is BJ. Briefly: growth inhibition of engineered Ras-driven BJ cells – cell-based, alamar blue fluorescence, cherrypicked samples, dose response (AID 2631).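 Note: confirmatory dose-response assay in RAS-dependent BJ fibroblasts engineered with TERT, LT and ST, with cytotoxicity read by fluorescence.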 It counts as functional. The settings on record: Homo sapiens.
Assay [5] is described as follows: DRD fibroblast viability loss – cell-based, non-viral oncogenic, luminescence, dose response (AID 1934). It counts as functional. The note with it: Homo sapiens.
The test system of assay [6] is BJ. The assay is described as follows: BJ-TERT fibroblast viability loss – cell-based, RAS-independent, luminescence, dose response (AID 1933). The settings on record: Homo sapiens. In kind it is functional.
Assay [7] has as its system BJ. The assay is described as follows: cells. It counts as functional, cell-based. The note with it: Homo sapiens.
Assay [8] can be described thus: Luminescence Cell-Based Dose Response HTS to Identify Inhibitors of 5'UTR Stem-Loop Driven Prion Protein mRNA Translation in H4 Neuroglioblastoma Cells. [Related pubchem assays: 1827 (Project Summary), 1813 (Primary HTS)]. It counts as functional.
For assay [9], the target named is Adenosylmethionine-8-amino-7-oxononanoate aminotransferase (Mycobacterium tuberculosis, UniProt P9WQ81). The assay is described as follows: Mycobacterium tuberculosis BioA enzyme inhibitor Measured in Biochemical System Using Plate Reader - 2163-02_Inhibitor_Dose_CherryPick_Activity. In kind it is functional, Mycobacterium tuberculosis UT205.
Assay [10] deals with Beta-lactamase (Salmonella choleraesuis (strain SC-B67), UniProt Q5J463). Briefly: Epi-absorbance-based counterscreen for selective VIM-2 inhibitors: dose response biochemical high throughput screening assay to identify inhibitors of TEM-1 serine-beta-lactamase.
Assay [11] concerns the target T1, Beta-lactamase (Pseudomonas aeruginosa, UniProt Q79MP6). Briefly: […] counterscreen for selective VIM-2 inhibitors: dose response biochemical high throughput screening assay to identify inhibitors of IMP-1 metallo-beta-lactamase.
The target in assay [12] is T1, Beta-lactamase. The assay is described as follows: inhibition of IMP-1 beta-lactamase activity – biochemical, epi-absorbance, selectivity assay for VIM-2 inhibitor project, dose response (AID 1920).
The target in assay [13] is Glucose-6-phosphate 1-dehydrogenase (Homo sapiens, UniProt P11413). The assay is described as follows: inhibition of Homo sapiens G6PD, dose series – biochemical, fluorescence, selectivity assay for P. falciparum G6PD inhibitor project, dose response (AID 504792). It counts as functional.
The target of assay [14] is T2, Sentrin-specific protease 8 (Homo sapiens, UniProt Q96LD8).
T2 sequence (Q96LD8 whole entry): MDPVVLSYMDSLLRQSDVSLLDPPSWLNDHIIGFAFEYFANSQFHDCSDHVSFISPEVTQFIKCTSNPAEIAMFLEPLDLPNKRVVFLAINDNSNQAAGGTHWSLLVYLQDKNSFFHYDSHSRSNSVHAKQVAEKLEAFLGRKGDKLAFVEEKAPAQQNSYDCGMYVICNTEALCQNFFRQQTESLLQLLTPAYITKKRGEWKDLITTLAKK
In kind it is functional.

In assay [15] the target is T2, Sentrin-specific protease 8. In kind it is functional. This is another data set of the same source.
Assay [16] deals with Cyclin-dependent kinase 7 (Homo sapiens, UniProt P50613). In kind it is functional.
Assay [17] has as its target Cyclin-dependent kinase 9 (Homo sapiens, UniProt P50750). It counts as functional.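 Note: value from the CDK9 entry of a kinome-spanning kinase panel.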
Assay [18] deals with Cell division cycle 7-related protein kinase (Homo sapiens, UniProt O00311). It counts as functional.
The nature of assay [19]: cells. In kind it is functional, cell-based.
A short description of assay [20]: cells. It counts as functional, cell-based. This is another data set of the same source.
Assay [21] can be described thus: THP-1 cell cytotoxicity, cytotoxicity control, set 4 (AID 504911). In kind it is functional. The settings on record: Mycobacterium tuberculosis.
For assay [22], the system named is HEK293. The assay is described as follows: EBV LMP1 TES2 canonical NF-kB signalling blockers – cell-based, HEK293, luciferase, cherry-pick, dose response (AID 588343). In kind it is functional. The settings on record: Homo sapiens.
For assay [23], the system named is HEK293. The assay is described as follows: inhibition of NOD1-driven NF-kB reporter – cell-based, luminescence, uHTS, primary screen (AID 1578). It counts as functional. The note with it: Homo sapiens.
In assay [24] the test system is HEK293. The assay is described as follows: NOD2 signaling inhibitors in MDP-stimulated cells, cell-based, uHTS, luminescence (AID 2001). In kind it is functional. The note with it: Homo sapiens.
Assay [25] in a line: NIH3T3 cell viability loss – ATP luminescence, mouse fibroblasts, counter-screen, dose response (AID 2010).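 Note: cells exposed to compound for about 90 hours before reading.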 In kind it is functional, cell-based.
Assay [26] concerns HEK293. Briefly: cells. It counts as functional, cell-based. The settings on record: Homo sapiens.
Assay [27] is described as follows: Trypanosoma cruzi growth suppression in host cells – NIH3T3 host cells, beta-gal luminescence, confirmation (AID 2044).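 Note: intracellular parasites grown in NIH/3T3 mouse fibroblasts as host cells; luminescent beta-galactosidase reporter signal from transgenic T. cruzi replicating inside host cells; inhibitors lower the luminescence signal.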 It counts as functional, cell-based.
For assay [28], the target named is Nucleotide-binding oligomerization domain-containing protein 2 (Homo sapiens, UniProt Q9HC29). Briefly: inhibition of NOD2-driven NF-kB reporter – cell-based, luminescence, uHTS, HEK293 (AID 1566). It counts as functional.
The next assay has as its target Protein Wnt-3a (Mus musculus, UniProt P27467). Briefly: antagonism of Wnt3a pathway luciferase reporter – Wnt-LIGHT cells, luminescence, selectivity assay for Gli-SUFU antagonist project, dose response (AID 651570).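 Note: Wnt-LIGHT reporter cells stimulated with conditioned medium from Wnt3a-producing cells.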 The settings on record: read-out: IC50_Mean. It counts as functional.
The test system of assay [29] is HEK293. Briefly: cells. In kind it is functional, cell-based. The note with it: Homo sapiens. The source holds these as a separate data set.
In assay [30] the test system is HEK293. Briefly: cells. In kind it is functional, cell-based. The note with it: Homo sapiens. This is another data set of the same source.
The target in assay [31] is Peroxisome proliferator-activated receptor gamma/Nuclear receptor coactivator 2 (Homo sapiens, UniProt P37231). Briefly: TR-FRET dose response biochemical High Throughput Screening assay for agonists of the steroid receptor coactivator 2 (SRC-2) recruitment by the peroxisome proliferator-activated receptor gamma (PPAR gamma): non-selective agonists. [Related pubchem assays: 1297, 1032 ]. In kind it is functional. A general note: In TR-FRET formats the signal depends on donor and acceptor labels being close together.

Assay [32] concerns the target Peroxisome proliferator-activated receptor gamma/Nuclear receptor coactivator 1 (Homo sapiens, UniProt P37231). Briefly: TR-FRET dose response biochemical High Throughput Screening assay for agonists of the steroid receptor coactivator 1 (SRC-1) recruitment by the peroxisome proliferator-activated receptor gamma (PPAR gamma): non-selective agonists. [Related pubchem assays (depositor defined):AID1300, AID1808, AID504735, AID631]. It counts as protein assay.

In another assay the target is T3, Protein skinhead-1 (Caenorhabditis elegans, UniProt P34707).
T3 sequence (P34707 whole entry): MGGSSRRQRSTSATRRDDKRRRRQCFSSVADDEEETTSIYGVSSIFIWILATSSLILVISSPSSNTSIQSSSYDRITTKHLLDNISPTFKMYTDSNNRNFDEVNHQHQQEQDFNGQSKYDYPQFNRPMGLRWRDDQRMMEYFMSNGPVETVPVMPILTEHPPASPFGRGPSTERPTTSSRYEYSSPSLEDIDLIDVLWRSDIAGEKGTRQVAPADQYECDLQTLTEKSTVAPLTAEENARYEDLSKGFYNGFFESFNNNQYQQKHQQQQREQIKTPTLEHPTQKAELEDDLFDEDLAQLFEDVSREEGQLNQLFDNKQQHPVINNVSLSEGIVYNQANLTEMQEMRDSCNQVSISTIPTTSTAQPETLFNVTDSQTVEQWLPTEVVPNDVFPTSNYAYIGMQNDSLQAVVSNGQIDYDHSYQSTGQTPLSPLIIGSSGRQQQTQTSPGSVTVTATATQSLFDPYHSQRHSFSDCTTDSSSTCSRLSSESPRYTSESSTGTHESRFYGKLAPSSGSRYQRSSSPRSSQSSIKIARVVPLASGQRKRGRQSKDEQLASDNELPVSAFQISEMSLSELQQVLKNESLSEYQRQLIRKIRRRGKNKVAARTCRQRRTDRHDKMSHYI
It counts as functional.

Assay [33] deals with Peroxisome proliferator-activated receptor gamma/Nuclear receptor coactivator 3 (Homo sapiens, UniProt P37231). The assay is described as follows: TR-FRET dose response biochemical High Throughput Screening assay for agonists of the steroid receptor coactivator 3 (SRC-3) recruitment by the peroxisome proliferator-activated receptor gamma (PPAR gamma): non-selective agonists. [Related pubchem assays: 1301 (Confirmation screen.), 1048 (Primary screen.)]. In kind it is functional.

The target in assay [34] is FAD-linked sulfhydryl oxidase ALR (Homo sapiens, UniProt P55789). The assay is described as follows: ALR-catalysed DTT oxidation blockers – biochemical, H2O2 detection, luminescence, cherry-pick, dose response (AID 493248).

T1 sequence (Q79MP6 whole entry): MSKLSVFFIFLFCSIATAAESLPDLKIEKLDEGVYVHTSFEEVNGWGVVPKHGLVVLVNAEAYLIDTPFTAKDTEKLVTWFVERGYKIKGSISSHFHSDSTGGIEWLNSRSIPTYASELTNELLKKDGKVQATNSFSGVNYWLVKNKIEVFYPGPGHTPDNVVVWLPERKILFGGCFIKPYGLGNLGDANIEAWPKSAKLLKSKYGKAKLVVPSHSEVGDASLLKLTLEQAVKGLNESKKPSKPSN
Beta-lactamase (Salmonella choleraesuis (strain SC-B67), UniProt Q5J463), sequence (Q5J463 whole entry): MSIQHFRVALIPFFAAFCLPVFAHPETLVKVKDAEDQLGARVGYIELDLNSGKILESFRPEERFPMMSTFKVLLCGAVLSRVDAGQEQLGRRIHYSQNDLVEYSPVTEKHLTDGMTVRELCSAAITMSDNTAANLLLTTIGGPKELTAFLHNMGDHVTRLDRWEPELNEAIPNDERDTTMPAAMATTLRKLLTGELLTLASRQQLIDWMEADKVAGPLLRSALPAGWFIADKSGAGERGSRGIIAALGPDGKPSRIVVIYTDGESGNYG
Adenosylmethionine-8-amino-7-oxononanoate aminotransferase, sequence (P9WQ81 whole entry): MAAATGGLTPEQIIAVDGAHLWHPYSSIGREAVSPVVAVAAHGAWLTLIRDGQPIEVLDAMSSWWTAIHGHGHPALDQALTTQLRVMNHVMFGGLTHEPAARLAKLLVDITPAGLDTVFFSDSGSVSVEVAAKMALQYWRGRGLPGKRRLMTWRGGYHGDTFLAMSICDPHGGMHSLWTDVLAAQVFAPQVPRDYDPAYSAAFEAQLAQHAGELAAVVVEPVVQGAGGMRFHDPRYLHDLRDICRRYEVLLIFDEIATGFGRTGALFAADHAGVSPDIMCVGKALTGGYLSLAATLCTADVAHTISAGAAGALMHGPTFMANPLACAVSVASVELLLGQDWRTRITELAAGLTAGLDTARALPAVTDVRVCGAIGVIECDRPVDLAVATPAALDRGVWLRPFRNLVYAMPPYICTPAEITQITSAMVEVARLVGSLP
Peroxisome proliferator-activated receptor gamma/Nuclear receptor coactivator 3, sequence (P37231 whole entry): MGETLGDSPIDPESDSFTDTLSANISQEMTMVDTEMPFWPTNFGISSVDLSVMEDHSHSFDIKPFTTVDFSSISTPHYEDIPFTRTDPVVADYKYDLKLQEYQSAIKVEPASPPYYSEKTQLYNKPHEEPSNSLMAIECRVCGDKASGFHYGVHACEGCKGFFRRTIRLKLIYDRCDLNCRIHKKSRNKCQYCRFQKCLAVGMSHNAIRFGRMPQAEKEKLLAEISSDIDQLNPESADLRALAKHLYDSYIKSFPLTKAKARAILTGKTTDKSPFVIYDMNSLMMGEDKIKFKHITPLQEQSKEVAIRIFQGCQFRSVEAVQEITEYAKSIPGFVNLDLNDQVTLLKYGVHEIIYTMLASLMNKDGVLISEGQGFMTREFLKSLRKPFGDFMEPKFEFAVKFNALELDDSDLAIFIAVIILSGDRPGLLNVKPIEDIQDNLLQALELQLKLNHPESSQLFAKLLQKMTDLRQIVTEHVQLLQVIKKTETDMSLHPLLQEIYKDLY
Peroxisome proliferator-activated receptor gamma/Nuclear receptor coactivator 3, sequence (Q9Y6Q9 whole entry, further chain): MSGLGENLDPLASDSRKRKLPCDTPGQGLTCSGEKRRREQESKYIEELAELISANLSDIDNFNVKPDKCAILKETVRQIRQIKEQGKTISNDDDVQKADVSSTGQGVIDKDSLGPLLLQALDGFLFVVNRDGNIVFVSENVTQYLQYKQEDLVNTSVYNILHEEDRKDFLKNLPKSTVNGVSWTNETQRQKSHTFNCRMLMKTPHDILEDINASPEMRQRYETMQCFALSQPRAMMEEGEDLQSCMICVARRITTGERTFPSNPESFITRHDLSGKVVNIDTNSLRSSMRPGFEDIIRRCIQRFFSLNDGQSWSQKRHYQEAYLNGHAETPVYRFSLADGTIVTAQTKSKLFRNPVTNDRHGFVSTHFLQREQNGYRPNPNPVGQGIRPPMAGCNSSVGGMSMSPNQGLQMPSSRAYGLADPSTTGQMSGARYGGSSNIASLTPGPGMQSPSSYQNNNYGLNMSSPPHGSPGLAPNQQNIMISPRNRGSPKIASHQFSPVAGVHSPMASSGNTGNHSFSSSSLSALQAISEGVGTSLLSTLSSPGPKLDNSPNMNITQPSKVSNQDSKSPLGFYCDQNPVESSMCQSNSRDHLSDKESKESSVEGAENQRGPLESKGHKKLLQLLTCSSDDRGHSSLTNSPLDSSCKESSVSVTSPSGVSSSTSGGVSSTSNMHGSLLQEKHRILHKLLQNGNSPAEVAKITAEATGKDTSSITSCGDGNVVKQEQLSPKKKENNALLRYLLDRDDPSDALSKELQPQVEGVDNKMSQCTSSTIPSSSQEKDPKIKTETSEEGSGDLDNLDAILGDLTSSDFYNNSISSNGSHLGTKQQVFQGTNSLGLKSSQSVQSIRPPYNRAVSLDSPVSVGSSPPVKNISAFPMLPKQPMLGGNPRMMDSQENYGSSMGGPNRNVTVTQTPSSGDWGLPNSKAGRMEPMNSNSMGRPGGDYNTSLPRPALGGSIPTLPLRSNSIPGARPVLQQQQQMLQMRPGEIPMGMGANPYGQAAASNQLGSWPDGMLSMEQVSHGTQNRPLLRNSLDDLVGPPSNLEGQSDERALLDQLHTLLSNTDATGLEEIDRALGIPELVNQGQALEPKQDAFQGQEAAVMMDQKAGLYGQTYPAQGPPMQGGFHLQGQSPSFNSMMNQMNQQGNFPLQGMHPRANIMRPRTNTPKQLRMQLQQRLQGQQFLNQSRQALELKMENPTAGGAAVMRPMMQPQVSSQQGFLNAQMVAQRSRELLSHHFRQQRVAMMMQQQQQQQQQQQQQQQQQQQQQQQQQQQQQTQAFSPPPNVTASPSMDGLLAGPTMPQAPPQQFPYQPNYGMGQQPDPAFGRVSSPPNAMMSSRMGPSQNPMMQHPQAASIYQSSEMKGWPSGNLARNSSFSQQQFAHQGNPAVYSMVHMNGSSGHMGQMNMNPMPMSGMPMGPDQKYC
Peroxisome proliferator-activated receptor gamma/Nuclear receptor coactivator 2, sequence (P37231 whole entry): as the sequence (P37231 whole entry) above
Peroxisome proliferator-activated receptor gamma/Nuclear receptor coactivator 2, sequence (Q15596 whole entry, further chain): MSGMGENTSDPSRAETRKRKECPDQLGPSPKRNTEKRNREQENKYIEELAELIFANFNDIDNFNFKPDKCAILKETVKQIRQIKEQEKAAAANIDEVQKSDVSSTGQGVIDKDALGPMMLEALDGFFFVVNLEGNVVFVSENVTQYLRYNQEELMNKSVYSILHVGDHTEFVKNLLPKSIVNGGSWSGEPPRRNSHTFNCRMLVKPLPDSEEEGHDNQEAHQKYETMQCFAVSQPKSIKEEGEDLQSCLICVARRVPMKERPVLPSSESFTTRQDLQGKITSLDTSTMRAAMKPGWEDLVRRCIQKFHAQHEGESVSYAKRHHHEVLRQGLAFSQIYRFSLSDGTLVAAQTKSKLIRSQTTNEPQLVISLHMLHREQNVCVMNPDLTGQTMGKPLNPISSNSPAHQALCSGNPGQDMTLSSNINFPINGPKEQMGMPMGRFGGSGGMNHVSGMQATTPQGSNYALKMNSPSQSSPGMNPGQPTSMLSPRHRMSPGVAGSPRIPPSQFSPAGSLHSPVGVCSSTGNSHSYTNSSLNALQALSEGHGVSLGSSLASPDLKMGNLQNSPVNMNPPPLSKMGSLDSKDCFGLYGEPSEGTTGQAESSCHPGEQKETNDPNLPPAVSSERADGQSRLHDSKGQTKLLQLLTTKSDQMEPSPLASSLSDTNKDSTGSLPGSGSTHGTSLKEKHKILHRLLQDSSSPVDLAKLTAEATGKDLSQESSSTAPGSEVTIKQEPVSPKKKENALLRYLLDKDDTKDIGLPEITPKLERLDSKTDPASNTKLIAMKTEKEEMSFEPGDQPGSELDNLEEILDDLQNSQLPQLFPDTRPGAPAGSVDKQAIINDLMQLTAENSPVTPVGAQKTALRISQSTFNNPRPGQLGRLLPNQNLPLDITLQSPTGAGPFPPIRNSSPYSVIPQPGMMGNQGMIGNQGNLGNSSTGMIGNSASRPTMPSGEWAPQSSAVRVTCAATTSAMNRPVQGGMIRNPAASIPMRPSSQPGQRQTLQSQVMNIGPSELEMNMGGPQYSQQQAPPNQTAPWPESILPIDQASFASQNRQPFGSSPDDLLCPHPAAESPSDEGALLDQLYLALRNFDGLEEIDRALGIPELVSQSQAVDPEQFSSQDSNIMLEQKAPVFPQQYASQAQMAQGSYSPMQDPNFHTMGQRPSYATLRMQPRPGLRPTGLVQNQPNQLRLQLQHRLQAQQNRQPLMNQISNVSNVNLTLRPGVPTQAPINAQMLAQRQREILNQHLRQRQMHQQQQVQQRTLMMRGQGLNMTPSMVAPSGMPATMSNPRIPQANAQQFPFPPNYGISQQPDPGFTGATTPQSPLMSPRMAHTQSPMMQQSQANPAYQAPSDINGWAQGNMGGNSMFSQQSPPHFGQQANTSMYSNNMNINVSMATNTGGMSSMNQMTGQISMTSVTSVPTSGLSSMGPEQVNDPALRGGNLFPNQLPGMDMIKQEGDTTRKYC

As to `N#CC1=C(N)Oc2cc(N)ccc2C1c1cccc(Br)c1` (stereo not drawn), the EC50 was 1.83 µM (active) in assay [1]; 0.859 µM (inconclusive) with BJ [2]; 0.18 µM (active) in assay [3]; 0.182 µM (active) with BJ [4]; 0.658 µM (active) in assay [5]; 1.2 µM (active) with BJ [6]. Also, the EC50 with BJ [7] was 0.702 µM (active); in [8] it was 0.502 µM (active).
As to `Cc1nn(CCC(=O)O)c2nc(-c3cccnc3)cc(C(F)(F)F)c12`, the AC50 in [9] is 10.2 µM (active).
For the compound `Cc1ccc(-n2c(-c3nn(C)c(C)c3Cl)n[nH]c2=S)cc1`, the IC50 on Beta-lactamase [10], on Beta-lactamase [11] and at Beta-lactamase [12] was > 59.6 µM (inactive) each time.
In the case of `Cc1ccc(Nc2cc(C)c(O)c(C)c2)cc1`, the results for the IC50 in [13], in [14] and in assay [15] were 40 µM (inactive), 13.9 µM (active) and 23.7 µM (active), respectively.
For `NC(=O)c1ccc(-c2ccncc2)cc1N1CCCC1`, the Ki in assay [16] was > 2.51 µM (inactive); in [17] it was 1 µM (active); in [18] it was 0.126 µM (active).
On to `O=C(NCCS(=O)(=O)NCCc1ccccc1)c1ccc2c(c1)OCO2`, for which the IC50 in the assay “cells [19]” was > 29.9 µM (inactive). For the same compound, the EC50 in the assay “cells [20]” is > 29.9 µM (inactive).
Regarding `O=C(CSc1ncccn1)NC1CCCCC1`, in assay [21], the CC50 was > 100 µM (active).
Turning to `C=CCn1c(O)c(N=NC(=S)Nc2cccc(C)c2)c2ccccc21`, the concentration at half-maximal activity (AC50) with HEK293 [22] was 1.46 µM (active). The EC50 was 1.09 µM (active) with HEK293 [23], 3.44 µM (active) in [25], 0.558 µM (active) in assay [27] and 16.3 µM (active) in assay [28]. In addition, the IC50 was 1.18 µM (active) with HEK293 [24]; 2.97 µM (active) in the assay with HEK293 [26]; 29.2 µM (inactive) at Protein Wnt-3a; > 20 µM (inactive) with HEK293 [29]; > 20 µM (inactive) in the assay on HEK293 [30].
As to `O=C(Nc1cccnc1)c1ccc(N2CCOCC2)c([N+](=O)[O-])c1`, in [9], the AC50 is 6.8 µM (active).
For `Cc1c(Cl)c(-c2nnc(S)n2-c2ccc(F)cc2)nn1C`, the 50% effective concentration (EC50) in assay [31] is > 79.4 µM (not active); in [32] it was > 79.4 µM (inactive); in assay [33], > 79.4 µM (not active). Further, the IC50 at Protein skinhead-1 is > 100 µM (inactive); at Beta-lactamase [10] it was > 59.6 µM (inactive); on Beta-lactamase [11], > 59.6 µM (inactive); on Beta-lactamase [12], > 59.6 µM (inactive). The AC50 in assay [34] is 5.12 µM (active).
Take `Cc1cc2nc(/C=C/c3cccnc3)[nH]c2cc1C`: the EC50 in assay [1] is 0.336 µM (inconclusive); in the assay on BJ [2], 15.1 µM (inconclusive); in assay [3], 0.154 µM (active); in the assay with BJ [4], < 0.104 µM (active); in [5], 1.42 µM (inconclusive); in the assay with BJ [6], 0.553 µM (inconclusive). Also, the EC50 was 1.89 µM (inconclusive) in the assay on BJ [7] and 0.318 µM (active) in [8].
